This is an account of results in patent publication US11179383B2 (Gilead Sciences, Inc., priority 2018, dated 2021).

The test deals with T1, α4β7 integrin (Homo sapiens, UniProt P13612+P26010).
T1 construct: monitoring the capture of α4β7 integrin expressing cells on a recombinant MadCAM-1 extracellular domain-coated plate; endogenous in cells; host or cells: RPMI8866 cells
T1 sequence (P13612 34-1032): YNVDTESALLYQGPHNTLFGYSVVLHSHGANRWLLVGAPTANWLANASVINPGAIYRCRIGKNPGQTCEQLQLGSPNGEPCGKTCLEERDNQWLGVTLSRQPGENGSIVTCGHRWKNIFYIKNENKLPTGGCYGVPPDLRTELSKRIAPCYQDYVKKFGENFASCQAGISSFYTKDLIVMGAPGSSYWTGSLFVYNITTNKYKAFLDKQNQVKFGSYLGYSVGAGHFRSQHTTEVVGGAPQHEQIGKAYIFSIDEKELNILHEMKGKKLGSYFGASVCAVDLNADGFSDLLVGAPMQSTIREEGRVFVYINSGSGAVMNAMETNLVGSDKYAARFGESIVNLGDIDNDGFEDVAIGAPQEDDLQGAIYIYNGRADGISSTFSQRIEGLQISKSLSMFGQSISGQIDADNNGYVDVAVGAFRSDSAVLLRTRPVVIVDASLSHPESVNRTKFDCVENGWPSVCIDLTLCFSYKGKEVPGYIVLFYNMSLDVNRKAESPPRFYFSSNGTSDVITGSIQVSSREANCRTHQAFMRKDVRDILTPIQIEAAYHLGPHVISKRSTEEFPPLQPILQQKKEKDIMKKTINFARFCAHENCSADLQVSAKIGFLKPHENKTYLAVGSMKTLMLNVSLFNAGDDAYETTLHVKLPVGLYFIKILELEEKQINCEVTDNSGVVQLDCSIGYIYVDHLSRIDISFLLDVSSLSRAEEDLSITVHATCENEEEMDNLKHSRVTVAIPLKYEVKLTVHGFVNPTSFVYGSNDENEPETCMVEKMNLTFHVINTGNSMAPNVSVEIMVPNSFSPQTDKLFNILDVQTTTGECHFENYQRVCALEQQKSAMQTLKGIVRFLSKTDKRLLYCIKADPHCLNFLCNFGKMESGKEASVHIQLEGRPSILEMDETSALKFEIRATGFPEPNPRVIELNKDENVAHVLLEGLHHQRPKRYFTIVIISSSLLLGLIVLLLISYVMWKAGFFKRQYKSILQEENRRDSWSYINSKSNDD
T1 sequence (P26010 20-798): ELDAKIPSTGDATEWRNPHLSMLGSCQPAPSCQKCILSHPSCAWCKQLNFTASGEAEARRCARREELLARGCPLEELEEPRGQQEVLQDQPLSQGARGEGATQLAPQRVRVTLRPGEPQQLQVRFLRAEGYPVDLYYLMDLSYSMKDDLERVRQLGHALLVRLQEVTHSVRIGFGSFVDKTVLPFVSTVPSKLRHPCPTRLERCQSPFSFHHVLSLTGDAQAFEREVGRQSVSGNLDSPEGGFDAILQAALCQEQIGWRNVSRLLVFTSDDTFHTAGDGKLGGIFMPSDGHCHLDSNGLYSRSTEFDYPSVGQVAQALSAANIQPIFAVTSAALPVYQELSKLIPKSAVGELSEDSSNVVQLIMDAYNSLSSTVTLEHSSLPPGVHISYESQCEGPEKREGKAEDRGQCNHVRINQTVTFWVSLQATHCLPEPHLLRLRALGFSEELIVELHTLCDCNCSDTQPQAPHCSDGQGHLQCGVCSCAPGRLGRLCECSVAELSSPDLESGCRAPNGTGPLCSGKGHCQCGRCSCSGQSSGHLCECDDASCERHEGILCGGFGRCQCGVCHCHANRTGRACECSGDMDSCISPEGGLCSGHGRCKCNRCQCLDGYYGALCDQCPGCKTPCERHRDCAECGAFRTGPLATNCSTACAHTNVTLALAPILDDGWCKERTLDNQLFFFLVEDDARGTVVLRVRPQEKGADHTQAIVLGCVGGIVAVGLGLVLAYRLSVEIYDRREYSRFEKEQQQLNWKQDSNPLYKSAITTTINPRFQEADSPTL
The test can be described thus: α4β7 Integrin Cell Capture Assay. The format is cell-based. The settings on record: capture of α4β7 integrin expressing RPMI8866 cells on recombinant MadCAM-1 extracellular domain-coated plate; DMEM+0.5% FBS+0.5 mM MnCl2; read-out: EC50 α4β7. A digest of the protocol: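 RPMI8866 cells in DMEM + 0.5% FBS + 0.5 mM MnCl2 preincubated with compound 1 h at 37 °C, then allowed to bind 30 min at 37 °C to plates coated with MAdCAM-1 extracellular domain (1.0 μg/mL). Cells fixed with glutaraldehyde, Hoechst-stained, imaged and bound cells counted; EC50 from cell count versus concentration.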
`COc1cccc(OC)c1-c1ccc(C[C@H](NC(=O)c2c(F)cc(NS(=O)(=O)c3ccc(-c4ccnc(F)c4)cc3)cc2F)C(=O)O)c2nccnc12` [Example 154, (S)-2-(2,6-difluoro-4-((4-(2-fluoropyridin-4-yl)phenyl)sulfonamido)benzamido)-3-(8-(2,6-dimethoxyphenyl)quinoxalin-5-yl)propanoic acid]: the EC50 was determined as 2.6 nM.

On to `CCOCc1cc(OC)c(-c2ccc(C[C@H](NC(=O)c3c(F)cc(NS(=O)(=O)c4ccc(-c5ccnc(F)c5)cc4)cc3F)C(=O)O)c3nccnc23)c(OC)c1` [Example 155, (S)-2-(2,6-difluoro-4-((4-(2-fluoropyridin-4-yl)phenyl)sulfonamido)benzamido)-3-(8-(4-(ethoxymethyl)-2,6-dimethoxyphenyl)quinoxalin-5-yl)propanoic acid], for which the EC50 turned out to be 1.6 nM.

For the molecule `O=C(N[C@@H](Cc1ccc(-c2c(Cl)cc(F)cc2Cl)c2nccnc12)C(=O)O)c1c(F)cccc1F` [Example 156, (S)-3-(8-(2,6-dichloro-4-fluorophenyl)quinoxalin-5-yl)-2-(2,6-difluorobenzamido)propanoic acid], the EC50 came out at 135 nM.

As for `O=C(N[C@@H](Cc1ccc(-c2c(Cl)cc(F)cc2Cl)c2nccnc12)C(=O)O)c1c(Cl)cccc1Cl` [Example 157, (S)-3-(8-(2,6-dichloro-4-fluorophenyl)quinoxalin-5-yl)-2-(2,6-dichlorobenzamido)propanoic acid], the EC50 worked out at 161 nM.

Turning to `CC[C@@H](Nc1cc(F)c(C(=O)N[C@@H](Cc2ccc(-c3c(C)c4cc(F)ccc4n(C)c3=O)c3nccnc23)C(=O)O)c(F)c1)C(F)(F)F` [Example 158, (S)-2-(2,6-difluoro-4-(((R)-1,1,1-trifluorobutan-2-yl)amino)benzamido)-3-(8-(6-fluoro-1,4-dimethyl-2-oxo-1,2-dihydroquinolin-3-yl)quinoxalin-5-yl)propanoic acid], the EC50 came out at 0.4 nM.

For `Cc1c(-c2ccc(C[C@H](NC(=O)c3c(F)cccc3F)C(=O)O)c3nccnc23)c(=O)n(C)c2ccc(F)cc12` [Example 159, (S)-2-(2,6-difluorobenzamido)-3-(8-(6-fluoro-1,4-dimethyl-2-oxo-1,2-dihydroquinolin-3-yl)quinoxalin-5-yl)propanoic acid], the EC50 was determined as 1.9 nM.

For `CCOCc1cc(OC)c(-c2ccc(CC(NC(=O)c3c(F)cc(NS(=O)(=O)c4ccc(-c5ccnc(F)c5)cc4)cc3F)C(=O)O)c3ccncc23)c(OC)c1` (stereo not shown) [Example 160, 2-(2,6-difluoro-4-((4-(2-fluoropyridin-4-yl)phenyl)sulfonamido)benzamido)-3-(8-(4-(ethoxymethyl)-2,6-dimethoxyphenyl)isoquinolin-5-yl)propanoic acid], the EC50 came to 0.6 nM.

Consider `COc1cccc(OC)c1-c1ccc(CC(NC(=O)c2c(F)cc(NS(=O)(=O)c3ccc(-n4cncn4)cc3)cc2F)C(=O)O)c2cnccc12` (stereo not shown) [Example 163, 2-(4-((4-(1H-1,2,4-triazol-1-yl)phenyl)sulfonamido)-2,6-difluorobenzamido)-3-(5-(2,6-dimethoxyphenyl)isoquinolin-8-yl)propanoic acid], for which the EC50 is 0.9 nM.

As to `CCOCc1cc(OC)c(-c2cnc(C[C@H](NC(=O)c3c(F)cc(NS(=O)(=O)c4ccc(-c5ccnc(F)c5)cc4)cc3F)C(=O)O)c3cccnc23)c(OC)c1` [Example 166, (S)-2-(2,6-difluoro-4-((4-(2-fluoropyridin-4-yl)phenyl)sulfonamido)benzamido)-3-(8-(4-(ethoxymethyl)-2,6-dimethoxyphenyl)-1,6-naphthyridin-5-yl)propanoic acid], the EC50 was 24.4 nM.

Take `CCOCc1cc(OC)c(-c2cnc(C[C@H](NC(=O)c3c(F)cccc3F)C(=O)O)c3cccnc23)c(OC)c1` [Example 167, (S)-2-(2,6-difluorobenzamido)-3-(8-(4-(ethoxymethyl)-2,6-dimethoxyphenyl)-1,6-naphthyridin-5-yl)propanoic acid]: the EC50 worked out at 836 nM.

As usually defined, the EC50 is the concentration needed to bring the measured effect to its halfway point.
